According to paper PMC12951551, “Do Amino-Oxetanes Resemble Amides? A Matched Molecular Pairs Property and Structural Comparison” (Journal of Medicinal Chemistry, 2026):
Converted amounts (≈) assume the structure as drawn.

Key:
[1] = Permeability assay (RRCK); format: in vitro ADME, canine; settings: dog, MDCK, apical to basolateral, average of 2 runs, footnote b = only one replicate
Kinetic solubility = format: physicochemical; settings: for solubility at 24 h: aqueous pH buffer, aqueous buffer, kinetic from dmso stock, 37 °C, 600 µM start; for Kinetic solubility, in words: across acidic, neutral, and basic conditions, compared with benzamide counterpart
Method: Aqueous buffer preparation: pH 3: 50 µL of 1N hydrochloric acid was added to 500 mL of deionized water. The solution was titrated with 1N hydrochloric acid to pH 3, and back titrated with 1N sodium hydroxide. pH 7.4: 100 mM sodium phosphate buffer is made by adding 56.4 g of dibasic sodium phosphate and 10.3 g of monobasic sodium phosphate to 4 L of deionized water. 250 µL of 100 mM sodium phosphate buffer was diluted with 250 µL of deionized water. The solution was titrated with 1N hydrochloric acid to pH 7.4, and back titrated with 1N sodium hydroxide. pH 10: Fisher Scientific pH 10 buffer (SB116-500) containing potassium hydroxide, potassium carbonate, and potassium […]
pH 12.8: 30 mL of 1N NaOH was added to 200 mL of deionized water. The solution was titrated with 1N sodium hydroxide to pH 12.8 and back titrated with 1N hydrochloric acid.
Kinetic solubility: Samples were diluted to 600 µM in the appropriate pH buffer (pH: 3, 7.4, 10) and to 600 µM (assumed 100% solubility) in a DMSO standard. Samples were mixed thoroughly and incubated at 37 °C for 24 h.
Following incubation, pH samples were transferred to a […] PVDF (low binding) and filtered to remove any precipitate. The filtrate was collected and analyzed via MS/MS. The ratio of MS response (DMSO:pH) is taken and multiplied by the initial 600 µM concentration to determine the concentration (solubility) of the samples in pH buffers. […]
(§1) Permeability assay (RRCK): Ralph Russ canine kidney cells were used for permeability measurements using a cell monolayer in 96-transwell format. The detailed assay conditions have been reported previously.9 Test compounds were added to the donor wells and a buffer was added to the receiver wells to start the apical to basolateral transport assay.
(§2) Time 0 and 1.5 h incubation samples were taken for LC-MS/MS analysis. Apparent permeability (Papp) was calculated using the equation below (1), where Area is the surface area of the cell monolayer (0.0625 cm2), CD(0) is the […]

[2] = Shake flask LogD (SFLogD) assay; format: physicochemical; settings: for logD: pH = 7.4, octanol/water shake flask, average of 2 runs unless otherwise stated
Method: as §1, §2

human hepatocytes = assay: Human Hepatocyte (HHEP) stability assay, clearance; format: in vitro ADME; settings: for HHEPG clearance: human hepatocytes, 0.5 million cells/mL, 1 µM test compound
Method: Human Hepatocyte (HHEP) assay: The high throughput HHEP stability assay was performed in a 384-well format (Greiner Bio-One, Monroe, NC). The cryopreserved HHEP were thawed, and re-suspended in Williams E medium (WEM, custom formula number 91-5233EC; Invitrogen, Grand Island, NY) supplemented with HEPES and Na2CO3. The cells were counted using the Trypan Blue exclusion method. A multidrop liquid dispenser (Multidrop DW, Thermo Scientific, Waltham, MA) was used to add the HHEP suspensions to the 384-well plates. The cell plates were covered and transferred to a Cytomat 2 incubator (ThermoFisher) and Biomek i7 (Beckman Coulter, Indianapolis, IN), equipped with three 3position MéCour heat exchangers. Test compounds were diluted on the Biomek i7 with buffer (15 µL) and added to the HHEP (30 µL). The final incubation contained 0.5 million cells/mL and 1 µM test compound in 45 µL total volume containing 0.01% DMSO. The incubation was carried out at 37 °C in the Cytomat 2 incubator (relative humidity ≥ 90%, 5% CO2/95% air). At various time points (2, 4, 11, 45, 75, 120, and 240 min), the plate was pulled out from the incubator by the Biomek i7 robot and put on the MéCour heated exchanger. Samples (3 µL) were transferred to a 384-well plate containing 30 µL acetonitrile with an internal standard (IS) to quench the reaction. Water (60 µL) was added to the quenched plate to dilute the organic solvent content for LC-MS/MS analysis. The plates were centrifuged at 3000 rpm for 10 min at 4 °C, sealed and subsequently analyzed using LC-MS/MS without further transfer of the supernatant.
Propranolol (CYP2D6), midazolam (CYP3A) and triazolam (CYP3A, low clearance), naloxone (UGT2B7), carbazeran (AO), and verapamil (CYP3A, CYP2C8) were used as positive controls. For CYP inhibition study, 1 mM ABT (a pan-cYP inhibitor) was pre-incubated with HHEP for 30 minutes at 37 °C before adding test compounds. Values are n >3 unless […]
as §1, §2

Row | SMILES | Papp at 1.5 h [1] | solubility at 24 h (Kinetic solubility; pH 3) | solubility at 24 h (Kinetic solubility; pH 7.4) | solubility at 24 h (Kinetic solubility; pH 10) | logD [2] | HHEPG clearance (human hepatocytes) | Kinetic solubility, in words (Kinetic solubility) | Change in SFlogD of the carbonyl-to-oxetane replacement ([2]; pH 7.4, amino-oxetane versus matched benzamide) | HHEPG clearance, in words (human hepatocytes; compared with benzamide counterpart)
1 | COc1ccc(C(=O)NCC23C[C@H]4C[C@@H](C2)C[C@@H](C3)C4)cc1 [1b, N-(((3R,5R,7R)-Adamantan-1-yl)Methyl)-4-Methoxybenzamide] | 32.7 ×10⁻⁶ cm/s | < 0.1 µM | < 0.1 µM | < 0.8 µM | 3.83 |  |  |  | 
2 | COc1ccc(C2(NCc3ccccc3)COC2)cc1 [2a, N-Benzyl-3-(4-Methoxyphenyl)Oxetan-3-Amine] | 36.5 ×10⁻⁶ cm/s | 521 µM (≈ 140 µg/mL) | 359 µM (≈ 96.7 µg/mL) | 285 µM (≈ 76.8 µg/mL) | 2.49 | 62 μL min^−1 million^−1 | higher solubility |  | 
3 | COc1ccc(C(=O)NCc2ccccc2)cc1 [2b, N-Benzyl-4-Methoxybenzamide] | 38.1 ×10⁻⁶ cm/s | 114 µM (≈ 27.5 µg/mL) | 91 µM (≈ 22 µg/mL) | 76 µM (≈ 18.3 µg/mL) | 2.74 | 30 μL min^−1 million^−1 |  |  | 
4 | COc1ccc(C2(N[C@@H](C)C(=O)N(C)C)COC2)cc1 [3a, (S)-2-((3-(4-Methoxyphenyl)Oxetan-3-yl)Amino)-N,N-Dimethylpropanamide] | 27.3 ×10⁻⁶ cm/s | 464 µM (≈ 129 µg/mL) | 472 µM (≈ 131 µg/mL) | 458 µM (≈ 127 µg/mL) | 0.418 | < 3 μL min^−1 million^−1 | solubility comparable to their analogous benzamides | −0.59 | 
5 | COc1ccc(C(=O)NC(C)C(=O)N(C)C)cc1 (stereo not shown) [3b, N-(1-(Dimethylamino)-1-Oxopropan-2-yl)-4-Methoxybenzamide] | 32.2 ×10⁻⁶ cm/s | 461 µM (≈ 115 µg/mL) | 574 µM (≈ 144 µg/mL) | 465 µM (≈ 116 µg/mL) | 1 | < 2 μL min^−1 million^−1 |  |  | 
6 | COc1ccc(C(=O)N2CCOCC2)cc1 [4b, (4-Methoxyphenyl)(Morpholino)Methanone] | 48.3 ×10⁻⁶ cm/s | 461 µM (≈ 102 µg/mL) | 574 µM (≈ 127 µg/mL) | 465 µM (≈ 103 µg/mL) | 0.823 | < 3 μL min^−1 million^−1 |  |  | 
7 | COc1ccc(C2(N(C3CC3)C3CCN(C(C)=O)CC3)COC2)cc1 [5a, 1-(4-(Cyclopropyl(3-(4-Methoxyphenyl)Oxetan-3-yl)Amino)Piperidin-1-yl)Ethan-1-One] | 38.8 ×10⁻⁶ cm/s | 299 µM (≈ 103 µg/mL) | 223 µM (≈ 76.8 µg/mL) | 195 µM (≈ 67.2 µg/mL) | 1.68 | 38 μL min^−1 million^−1 |  |  | 
8 | COc1ccc(C(=O)N(C2CC2)C2CCN(C(C)=O)CC2)cc1 [5b, N-(1-Acetylpiperidin-4-yl)-N-Cyclopropyl-4-Methoxybenzamide] | 31.7 ×10⁻⁶ cm/s | 465 µM (≈ 147 µg/mL) | 467 µM (≈ 148 µg/mL) | 299 µM (≈ 94.6 µg/mL) | 1.25 | < 4 μL min^−1 million^−1 |  |  | 
9 | COc1ccc(C2(Nc3ccc(NC(C)=O)cc3)COC2)cc1 [6a, N-(4-((3-(4-Methoxyphenyl)Oxetan-3-yl)Amino)Phenyl)Acetamide] |  | 509 µM (≈ 159 µg/mL) | 505 µM (≈ 158 µg/mL) | 500 µM (≈ 156 µg/mL) |  | 112 μL min^−1 million^−1 | higher solubility |  | 
10 | COc1ccc(C2(Nc3ccc4c(c3)OC(F)(F)O4)COC2)cc1 [7a, 2,2-Difluoro-N-(3-(4-Methoxyphenyl)Oxetan-3-yl)Benzo[d][1,3]dioxol-5-Amine] |  | 7 µM (≈ 2.35 µg/mL) | 8 µM (≈ 2.68 µg/mL) | 12 µM (≈ 4.02 µg/mL) |  |  |  |  | significantly higher clearance than its benzamide counterpart
11 | COc1ccc(C(=O)Nc2ccc3c(c2)OC(F)(F)O3)cc1 [7b, N-(2,2-Difluorobenzo[d][1,3]dioxol-5-yl)-4-Methoxybenzamide] | 28.3 ×10⁻⁶ cm/s | < 0.1 µM | < 0.1 µM | < 0.1 µM | 3.81 |  |  |  | 
12 | c1ccc(Oc2ccc(C3(N4CCOCC4)COC3)cc2)nc1 [9a, 4-(3-(4-(Pyridin-2-yloxy)Phenyl)Oxetan-3-yl)Morpholine] | 43.6 ×10⁻⁶ cm/s |  |  |  | 1.32 | 13 μL min^−1 million^−1 |  |  | 
13 | O=C(c1ccc(Oc2ccccn2)cc1)N1CCOCC1 [9b, Morpholino(4-(Pyridin-2-yloxy)Phenyl)Methanone] | 47.2 ×10⁻⁶ cm/s |  |  |  | 1.08 | < 2 μL min^−1 million^−1 |  |  | 
14 | O=C(c1ccc(S(=O)(=O)c2ccccc2)cc1)N1CCOCC1 [10b, Morpholino(4-(Phenylsulfonyl)Phenyl)Methanone] | 37.8 ×10⁻⁶ cm/s |  |  |  | 1.11 | < 2 μL min^−1 million^−1 |  |  | 
15 | FC(F)(F)c1ncc(-c2ccc(C3(N4CCOCC4)COC3)cc2)cn1 [11a, 4-(3-(4-(2-(Trifluoromethyl)Pyrimidin-5-yl)Phenyl)Oxetan-3-yl)Morpholine] | < 36.1 ×10⁻⁶ cm/s |  |  |  | 1.66 | < 2 μL min^−1 million^−1 |  |  | 
16 | O=C(c1ccc(-c2cnc(C(F)(F)F)nc2)cc1)N1CCOCC1 [11b, Morpholino(4-(2-(Trifluoromethyl)Pyrimidin-5-yl)Phenyl)Methanone] | 43.2 ×10⁻⁶ cm/s |  |  |  | 1.31 | < 2 μL min^−1 million^−1 |  |  | 
17 | c1cc(C2(N3CCOCC3)COC2)ccc1N1CCOCC1 [12a, 4-(4-(3-Morpholinooxetan-3-yl)Phenyl)Morpholine] | 39.3 ×10⁻⁶ cm/s |  |  |  | 0.331 | 11 μL min^−1 million^−1 |  |  | 
18 | O=C(c1ccc(N2CCOCC2)cc1)N1CCOCC1 [12b, 4-Morpholinonebenzene-4-Yl-Morpholine] | 36.4 ×10⁻⁶ cm/s |  |  |  | 0.444 | < 2 μL min^−1 million^−1 |  |  | 
